In patent US20260138978A1, “POSITIVE ALLOSTERIC MODULATORS OF THE MUSCARINIC ACETYLCHOLINE RECEPTOR M1” (Vanderbilt University, priority 2022, published 2026):

What was measured:
human mAChRM1 [1] = target: T1, human mAChRM1 (Homo sapiens, UniProt P11229); experiment: mAChR M1 cell-based functional assay (calcium mobilization), positive allosteric modulator activity: increase in the EC20 acetylcholine response; settings: for Emax: PAM mode; for EC50: increase in the EC20 acetylcholine response, read-out: PAM Activity Human M1 EC50
T1 construct: host or cells: CHO-K1
T1 sequence (P11229 1-460): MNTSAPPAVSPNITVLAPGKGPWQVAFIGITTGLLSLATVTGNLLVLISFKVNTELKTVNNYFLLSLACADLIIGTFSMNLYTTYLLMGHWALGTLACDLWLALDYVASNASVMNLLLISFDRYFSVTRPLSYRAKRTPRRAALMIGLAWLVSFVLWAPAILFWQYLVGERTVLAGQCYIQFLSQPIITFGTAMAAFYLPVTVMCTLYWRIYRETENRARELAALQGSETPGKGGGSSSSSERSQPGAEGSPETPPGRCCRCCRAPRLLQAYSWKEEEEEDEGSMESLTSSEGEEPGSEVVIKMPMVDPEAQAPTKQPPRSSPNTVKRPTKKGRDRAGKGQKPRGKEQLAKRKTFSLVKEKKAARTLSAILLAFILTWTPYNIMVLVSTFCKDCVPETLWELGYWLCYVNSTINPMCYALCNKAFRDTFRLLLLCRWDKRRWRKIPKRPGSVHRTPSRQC
Summary of the method: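 Potentiation is scored as the rise in an EC20 acetylcholine-evoked calcium signal across 11-point (1:3) compound series, fitted with a four-parameter logistic equation to give EC50 and Emax. Read-out is Fluo-4 fluorescence ratio in hM1-transfected CHO-K1 cells, measured kinetically on FDSS.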

human mAChRM1 [2] = target: T1, human mAChRM1; experiment: mAChR M1 cell-based functional assay (calcium mobilization), agonist activity upon compound addition, Emax relative to acetylcholine maximum
Summary of the method: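 Emax is given as a percentage of the maximal acetylcholine response, from four-parameter curves of compound-evoked calcium mobilization. Human M1-transfected CHO-K1 cells carried Fluo-4 dye, and compound (11 concentrations, 1:3 steps) was applied at 4 s of a 300 s kinetic fluorescence recording.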

[3] = calcium mobilization upon compound addition

| Compound | Emax (human mAChRM1 [1]) | EC50 (human mAChRM1 [1]) | Agonist Activity Human M1 EC50 (human mAChRM1 [2]; [3]) | EC50 (human mAChRM1 [2]; [3]) | Emax (human mAChRM1 [2]; relative to the maximum for acetylcholine) |
| --- | --- | --- | --- | --- | --- |
| Cc1cc(-c2ccc(C(O)(C3CC3)C3CC3)c3nn(C)cc23)cc(F)c1CN1Cc2ncccc2C1=O [Compound 85, 6-(4-(7-(dicyclopropyl(hydroxy)methyl)-2-methyl-2H-indazol-4-yl)-2-fluoro-6-methylbenzyl)-6,7-dihydro-5H-pyrrolo[3,4-b]pyridin-5-one] | 81% | 1700 nM | inactive | – | – |
| Cc1cc(-c2cc(C(C)(C)O)c3nn(C)cc3c2)ccc1CN1Cc2cccc(F)c2C1=O [Compound 167, 7-fluoro-2-(4-(7-(2-hydroxypropan-2-yl)-2-methyl-2H-indazol-5-yl)-2-methylbenzyl)isoindolin-1-one] | 74% | 3120 nM | inactive | – | – |
| CC(C)(O)c1ccc(-c2cc(F)c(CN3Cc4ncccc4C3=O)c(F)c2)c2ccccc12 [Compound 71, 6-(2,6-difluoro-4-(4-(2-hydroxypropan-2-yl)naphthalen-1-yl)benzyl)-6,7-dihydro-5H-pyrrolo[3,4-b]pyridin-5-one] | 64% | ≥ 10000 nM | inactive | – | – |

Compounds with a lower EC50 (human mAChRM1 [1]), results first:

| Emax (human mAChRM1 [1]) | EC50 (human mAChRM1 [1]) | Agonist Activity Human M1 EC50 (human mAChRM1 [2]; [3]) | EC50 (human mAChRM1 [2]; [3]) | Emax (human mAChRM1 [2]; relative to the maximum for acetylcholine) | Compound |
| --- | --- | --- | --- | --- | --- |
| 78% | 1090 nM | inactive | – | – | CCc1cnc2c(c1)C(=O)N(Cc1c(F)cc(-c3ccc(C(C)(C)O)c4nn(C)cc34)cc1F)C2 [Compound 176, 6-(2,6-difluoro-4-(7-(2-hydroxypropan-2-yl)-2-methyl-2H-indazol-4-yl)benzyl)-3-ethyl-6,7-dihydro-5H-pyrrolo[3,4-b]pyridin-5-one] |
| 70% | 103 nM | – | 4610 nM | 18% | Cn1cc2c(-c3cc(F)c(CN4Cc5ncccc5C4=O)c(Cl)c3)ccc(C(C)(C)O)c2n1 [Compound 61, 6-(2-chloro-6-fluoro-4-(7-(2-hydroxypropan-2-yl)-2-methyl-2H-indazol-4-yl)benzyl)-6,7-dihydro-5H-pyrrolo[3,4-b]pyridin-5-one] |
